Assay results taken from patent publication US9365584B2, “Thieno [2,3-B] pyridinedione activators of AMPK and therapeutic uses thereof” (Poxel, priority 2009, dated 2016).

Test system: AMPK
Assay: AMPK enzyme activity assay (Delfia technology, AMARA peptide substrate)
Format: biochemical
Conditions: compound at 30 μM vs AMP at 200 μM
Summary of the method: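 Value is the ratio of compound (30 μM) to AMP (200 μM) response, each as % of basal control. Phosphorylation of the AMARA peptide after AMPK addition was read by Delfia with an anti-phosphoserine antibody.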

Row | Activity: Ratio between the % of control (basal activity) of compound of formula (1) at 30 μM and the % of control (basal activity) of AMP (natural substrate) at 200 μM | SMILES
1 | A (0%<A<50%) | O=C1Nc2scc(-c3ccccc3Br)c2C(=O)C1(F)c1ccccc1 (stereo not shown) [No 125, 3-(2-bromophenyl)-5-fluoro-5-phenyl-7H-thieno[2,3-b]pyridine-4,6-dione]
2 | A (0%<A<50%) | COc1ccccc1-c1c(Cl)sc2c1C(=O)C(C)(c1ccc(F)cc1)C(=O)N2 (stereo not shown) [No 52, 2-chloro-5-(4-fluorophenyl)-3-(2-methoxyphenyl)-5-methyl-7H-thieno[2,3-b]pyridine-4,6-dione]
3 | B (50%≦B<75%) | COc1ccc(-c2csc3c2C(=O)C(F)(c2ccc(F)cc2)C(=O)N3)cc1 (stereo not shown) [No 199, 5-fluoro-5-(4-fluorophenyl)-3-(4-methoxyphenyl)-7H-thieno[2,3-b]pyridine-4,6-dione]
4 | A (0%<A<50%) | COc1cccc(-c2c(Cl)sc3c2C(=O)C(C)(c2ccccc2)C(=O)N3)c1 (stereo not shown) [No 40, 2-chloro-3-(3-methoxyphenyl)-5-methyl-5-phenyl-7H-thieno[2,3-b]pyridine-4,6-dione]
5 | C (C≧75%) | COc1ccccc1-c1c(Cl)sc2c1C(=O)C(C)(c1ccccc1F)C(=O)N2 (stereo not shown) [No 69, 2-chloro-5-(2-fluorophenyl)-3-(2-methoxyphenyl)-5-methyl-7H-thieno[2,3-b]pyridine-4,6-dione]
6 | C (C≧75%) | COc1ccccc1C1(F)C(=O)Nc2sc(Cl)c(-c3ccc(F)cc3O)c2C1=O (stereo not shown) [No 99, 2-chloro-5-fluoro-3-(4-fluoro-2-hydroxy-phenyl)-5-(2-methoxyphenyl)-7H-thieno[2,3-b]pyridine-4,6-dione]
7 | A (0%<A<50%) | CC(C)(C)c1ccc(-c2csc3c2C(=O)C(F)(c2ccccc2)C(=O)N3)cc1 (stereo not shown) [No 142, 3-(4-tert-butylphenyl)-5-fluoro-5-phenyl-7H-thieno[2,3-b]pyridine-4,6-dione]
8 | C (C≧75%) | Cc1cccc(-c2c(F)sc3c2C(=O)C(F)(c2ccccc2)C(=O)N3)c1 (stereo not shown) [No 137, 2,5-difluoro-3-(m-tolyl)-5-phenyl-7H-thieno[2,3-b]pyridine-4,6-dione]
9 | A (0%<A<50%) | CC1(c2ccccc2)C(=O)Nc2sc(Cl)c(-c3ccc4ccccc4c3O)c2C1=O (stereo not shown) [No 7, 2-chloro-3-(1-hydroxy-2-naphthyl)-5-methyl-5-phenyl-7H-thieno[2,3-b]pyridine-4,6-dione]
10 | B (50%≦B<75%) | Cc1ccccc1-c1c(F)sc2c1C(=O)C(F)(c1ccccc1)C(=O)N2 (stereo not shown) [No 130, 2,5-difluoro-3-(o-tolyl)-5-phenyl-7H-thieno[2,3-b]pyridine-4,6-dione]
11 | C (C≧75%) | O=C1Nc2scc(-c3cccc(O)c3)c2C(=O)C1(F)c1ccccc1 (stereo not shown) [No 204, 5-fluoro-3-(3-hydroxyphenyl)-5-phenyl-7H-thieno[2,3-b]pyridine-4,6-dione]
12 | A (0%<A<50%) | O=C(O)c1cccc(-c2csc3c2C(=O)C(F)(c2ccccc2)C(=O)N3)c1 (stereo not shown) [No 196, 3-(5-fluoro-4,6-dioxo-5-phenyl-7H-thieno[2,3-b]pyridin-3-yl)benzoic acid]
13 | A (0%<A<50%) | COc1ccc(-c2c(Cl)sc3c2C(=O)C(C)(c2ccc(C)cc2)C(=O)N3)cc1 (stereo not shown) [No 96, 2-chloro-3-(4-methoxyphenyl)-5-methyl-5-(p-tolyl)-7H-thieno[2,3-b]pyridine-4,6-dione]
14 | A (0%<A<50%) | COc1ccccc1C1(F)C(=O)Nc2sc(C)c(-c3ccccc3)c2C1=O (stereo not shown) [No 78, 5-fluoro-5-(2-methoxyphenyl)-2-methyl-3-phenyl-7H-thieno[2,3-b]pyridine-4,6-dione]
15 | C (C≧75%) | COc1ccc(-c2c(Cl)sc3c2C(=O)C(F)(c2ccccc2)C(=O)N3)c(F)c1 (stereo not shown) [No 74, 2-chloro-5-fluoro-3-(2-fluoro-4-methoxy-phenyl)-5-phenyl-7H-thieno[2,3-b]pyridine-4,6-dione]
16 | A (0%<A<50%) | O=C1Nc2scc(-c3ccccc3)c2C(=O)C1(c1ccccc1)c1ccccc1 [No 9, 3,5,5-triphenyl-7H-thieno[2,3-b]pyridine-4,6-dione]
17 | A (0%<A<50%) | Cc1cccc(C2(C)C(=O)Nc3sc(Cl)c(-c4cccc(F)c4)c3C2=O)c1 (stereo not shown) [No 106, 2-chloro-3-(3-fluorophenyl)-5-methyl-5-(m-tolyl)-7H-thieno[2,3-b]pyridine-4,6-dione]
18 | A (0%<A<50%) | COc1cc(Br)ccc1-c1c(F)sc2c1C(=O)C(F)(c1ccccc1)C(=O)N2 (stereo not shown) [No 128, 3-(4-bromo-2-methoxy-phenyl)-2,5-difluoro-5-phenyl-7H-thieno[2,3-b]pyridine-4,6-dione]
19 | A (0%<A<50%) | CC1(c2ccccc2F)C(=O)Nc2sc(Cl)c(-c3ccccc3F)c2C1=O (stereo not shown) [No 89, 2-chloro-3,5-bis(2-fluorophenyl)-5-methyl-7H-thieno[2,3-b]pyridine-4,6-dione]
20 | A (0%<A<50%) | Cc1cccc(-c2c(Cl)sc3c2C(=O)C(C)(c2cccc(C)c2)C(=O)N3)c1 (stereo not shown) [No 171, 2-chloro-5-methyl-3,5-bis(m-tolyl)-7H-thieno[2,3-b]pyridine-4,6-dione]
21 | B (50%≦B<75%) | O=C1Nc2scc(-c3ccc(Cl)cc3)c2C(=O)C1(F)c1ccccc1 (stereo not shown) [No 172, 3-(4-chlorophenyl)-5-fluoro-5-phenyl-7H-thieno[2,3-b]pyridine-4,6-dione]

Test system: ob/ob and db/db mice
Assay: not given
Conditions: 8 day AICAR administration; cited from earlier work

Row | SMILES | reduces blood glucose [%]
22 | NC(=O)c1ncn([C@@H]2O[C@H](CO)[C@@H](O)[C@H]2O)c1N [AICAR] | 35
